# Measured values: patent publication US20160376374A1, “ANTIBODIES TO CEACAM1 AND KINASE INHIBITORS FOR TREATING BRAF-MUTATED CELLS” (TEL HASHOMER MEDICAL RESEARCH INFRASTRUCTURE AND SERVICES …, priority 2014, published 2016)
# Assays:
# [1] = test system: vemurafenib-resistant B-Raf V600E (624mel) cells; assay: MAPK activity by immunoblotting for phosphorylated ERK1/2, vemurafenib-resistant cells; format: cell-based; conditions: vemurafenib-resistant 624mel; 160 nM, 24 hours; FIG. 4B
# Protocol: Two vemurafenib-sensitive B-Raf V600E cell samples (526mel, 624mel) and vemurafenib-resistant cell lines derived therefrom were incubated for 2 days with 1 μM vemurafenib. Cells were then analyzed for CEACAM1 protein expression by FACS as described above. Vemurafenib-resistant cell lines were generated by gradual increase of the inhibitor's concentration in culture, up to 0.32 μM.
# (§1) MAPK activity was measured in vemurafenib-sensitive and vemurafenib-resistant B-Raf V600E (624mel) cell samples by immunoblotting for phosphorylated ERK1/2 (pERK, Thr202/Tyr204), total ERK1/2 and actin after 24 hours of exposure to 160 nM vemurafenib.
# [2] = test system: CEACAM1 expression on B-Raf V600E cells (526mel, 624mel); assay: CEACAM1 expression on cells by FACS, mutated B-Raf cells; format: cell-based, human
# Protocol: Total RNA was extracted from 1.0*10^6 melanoma cells with TRIZOL. cDNA was generated with standard reverse transcriptase. Real time PCR was performed with CEACAM1-specific primers and compared to glyceraldehyde 3-phosphate dehydrogenase (GAPDH) tested as a control. Cycle threshold (Ct) values above 36 were considered as minimal or no expression. B-Raf genotype was determined by direct sequencing of amplified fragment from genomic DNA that contains the codon for position 600 of the B-Raf protein. Statistical analysis of the correlation between CEACAM1 expression (negative or positive) with the mutation status (positive=V600E, or negative=wild type) was performed by Fisher exact test.
# Cells were then tested for CEACAM1 expression using MRG1 (murine antibody to human CEACAM1) in flow cytometry as described above. Total RNA was extracted with TRIZOL and cDNA was generated with a reverse transcriptase, according to routine protocols.
# [3] = test system: B-Raf W.T. (076mel, 013mel) cells; assay: MAPK activity by immunoblotting for phosphorylated ERK1/2, B-Raf W.T. cells; format: cell-based; conditions: B-Raf W.T. cells 076mel, 1 μM, 48 hours, FIG. 2
# Protocol: (§2) MAPK activity was measured in B-Raf V600E (624mel, sk-mel-5) and B-Raf W.T. (076mel, 013mel) cell samples by immunoblotting for phosphorylated ERK1/2 (pERK, Thr202/Tyr204), total ERK1/2 and actin after 48 hours of exposure to vemurafenib (1 μM).
# [4] = test system: CEACAM1 expression on B-Raf W.T. cells (076mel); assay: CEACAM1 expression on cells by FACS, W.T. B-Raf cells; format: cell-based, human; conditions: 076mel (W.T. B-Raf); 0.1 μM and 1 μM, 2 to 48 hours; FIG. 3A
# [5] = test system: B-Raf V600E 526mel melanoma cells; assay: Determined IC50 of vemurafenib used to generate resistant melanoma cells; format: cell-based
# Protocol: B-Raf V600E 526mel melanoma cells were cultured in the presence of 1 μM vemurafenib. Cultivation was performed in RPMI 1640 supplemented with 1 mM Na-Pyruvate, 1 mM Pen-Strep, 1 mM L-Glutamine, 1 mM non-essential amino acids, and 10% heat inactivated fetal calf serum. […] Cells were then tested for CEACAM1 expression using MRG1 (murine antibody to human CEACAM1) in flow cytometry as described above. Total RNA was extracted with TRIZOL and cDNA was generated with a reverse transcriptase, according to routine protocols.
# [6] = test system: B-Raf V600E cell samples (526mel, 624mel) with cytotoxic T cells; assay: Killing of melanoma cells by cytotoxic T cells, LDH release; format: cell-based; conditions: pre-incubated with 1 μM, overnight, effector-target ratio 5:1, FIG. 7
# Protocol: Melanoma cells were pre-incubated with 1 μM vemurafenib and then co-incubated overnight with HLA-A2 matched antigen-matched T cells in effector-target ratio of 5:1. Cell killing was determined by LDH release.
# [7] = test system: CEACAM1 expression on sk-mel-2 cells (W.T. B-Raf, mutated N-Ras); assay: CEACAM1 expression on cells by FACS, W.T. B-Raf / mutated N-Ras cells; conditions: sk-mel-2 (W.T. B-Raf, mutated N-Ras); 1 μM; FIG. 3C
# Protocol: At each time point, CEACAM1 expression on the cells was determined by FACS. Volume equivalents of DMSO (vehicle) were used as control.
# [8] = test system: B-Raf V600E (624mel, sk-mel-5) cells; assay: MAPK activity by immunoblotting for phosphorylated ERK1/2, B-Raf V600E cells; format: cell-based
# Protocol: as §2, §1
smiles,measurement,setting,value
"CCCS(=O)(=O)Nc1ccc(F)c(C(=O)c2c[nH]c3ncc(-c4ccc(Cl)cc4)cc23)c1F [vemurafenib, N-(3-{[5-(4-chlorophenyl)-1H-pyrrolo[2,3-b]pyridin-3-yl]carbonyl}-2,4-difluorophenyl)propane-1-sulfonamide]",MAPK activity (phosphorylated ERK1/2),[1],practically uninterrupted
same,CEACAM1 expression levels on cells,"[2]; 526mel, 624mel (mutated B-Raf), 0.1 μM and 1 μM, 2 to 48 hours, FIG. 3A-B",dose-dependent effect
same,CEACAM1 expression,"[2]; B-Raf V600E 526mel melanoma cells, 1 μM, flow cytometry with MRG1, FIG. 5",down regulates CEACAM1 expression
same,"phosphorylation of ERK1/2 (pERK, Thr202/Tyr204)",[3],no substantial effect
same,CEACAM1 expression levels on cells,[4],did not have any effect
same,IC50,[5],0.64 nM
same,sensitization of melanoma cells to cytotoxic T cells (cell killing by LDH release),[6],significantly sensitizes melanoma cells to cytotoxic T cells
same,CEACAM1 expression levels on cells,[7],no effect
same,"phosphorylation of ERK1/2 (pERK, Thr202/Tyr204)","[8]; B-Raf V600E cells 624mel, sk-mel-5, 1 μM, 48 hours, FIG. 2",almost completely abolishes the phosphorylation of ERK1/2
same,"phosphorylation of ERK1/2 (pERK, Thr202/Tyr204)","[8]; vemurafenib-sensitive 624mel, 160 nM, 24 hours, FIG. 4B",almost completely abolishes the phosphorylation of ERK1/2
